Experimental findings from ChEMBL document CHEMBL5584362, “Sucurchalasins A and B, Sulfur-Containing Heterodimers of a Cytochalasan and a Macrolide from the Endophytic Fungus Aspergillus spelaeus GDGJ-286” (J Nat Prod, 2024) are described below.

For one experiment, the system named is Enterococcus faecalis. The experiment can be described thus: Antibacterial activity against Enterococcus faecalis measured after 20 to 45 mins by broth microdilution method. Type of experiment: functional. As to conditions: time 20-45 min. (Broth dilution looks for growth in wells or tubes with falling amounts of substance.)
With `C[C@H]1CCC(=O)CCC(=O)c2c(O)cc(O)cc2CC(=O)O1`, the minimal inhibitory concentration (MIC) (in general, the lowest concentration found to suppress growth) was more than 25 µg/mL.

Regarding `C[C@H]1CC/C=C\CC(=O)c2c(O)cc(O)cc2CC(=O)O1`, the MIC is more than 25 µg/mL.

`CO[C@H]1CCC[C@H](C)OC(=O)Cc2cc(O)cc(O)c2C(=O)C1` [11ALPHA-METHOXYCURVULARIN] displayed an MIC of more than 25 µg/mL.

The subject of the next experiment is A2780. Put plainly: Cytotoxicity against human A2780 cells by MTT assay.
Conditions: not given
The class given is functional, cell-based. (Tetrazolium dyes change colour on reduction, which living cells bring about.)
In the case of `C[C@H]1CCC(=O)CCC(=O)c2c(O)cc(O)cc2CC(=O)O1`, the concentration for half-maximal inhibition (IC50) (usually the concentration at which inhibition is half-maximal) was more than 20 µM.

`C[C@H]1CC/C=C\CC(=O)c2c(O)cc(O)cc2CC(=O)O1` had a half-inhibitory concentration (IC50) of more than 20 µM.

Compound `CO[C@H]1CCC[C@H](C)OC(=O)Cc2cc(O)cc(O)c2C(=O)C1` [11ALPHA-METHOXYCURVULARIN] displayed an IC50 of more than 20 µM.

Another experiment concerns Vibrio parahaemolyticus. Put plainly: Antibacterial activity against Vibrio parahaemolyticus measured after 20 to 45 mins by broth microdilution method. The class given is functional. As to conditions: time 20-45 min.
In turn, `C[C@H]1CCC(=O)CCC(=O)c2c(O)cc(O)cc2CC(=O)O1` returned a minimal inhibitory concentration (MIC) of more than 25 µg/mL.

Compound `C[C@H]1CC/C=C\CC(=O)c2c(O)cc(O)cc2CC(=O)O1` had a minimal inhibitory concentration (MIC) of more than 25 µg/mL.

Take `CO[C@H]1CCC[C@H](C)OC(=O)Cc2cc(O)cc(O)c2C(=O)C1` [11ALPHA-METHOXYCURVULARIN]: the MIC is more than 25 µg/mL.

For another experiment, the system named is Bacillus subtilis. Put plainly: Antibacterial activity against Bacillus subtilis measured after 20 to 45 mins by broth microdilution method. Type of experiment: functional. As to conditions: time 20-45 min.
`C[C@H]1CCC(=O)CCC(=O)c2c(O)cc(O)cc2CC(=O)O1` showed a minimum inhibitory concentration (MIC) of more than 25 µg/mL.

In the case of `C[C@H]1CC/C=C\CC(=O)c2c(O)cc(O)cc2CC(=O)O1`, the minimal inhibitory concentration (MIC) was more than 25 µg/mL.

For the compound `CO[C@H]1CCC[C@H](C)OC(=O)Cc2cc(O)cc(O)c2C(=O)C1` [11ALPHA-METHOXYCURVULARIN], the minimal inhibitory concentration (MIC) was more than 25 µg/mL.

Another experiment concerns HepG2. Put plainly: Cytotoxicity against human HepG2 cells by MTT assay. Type of experiment: functional, cell-based.
Conditions: not given
Turning to `C[C@H]1CCC(=O)CCC(=O)c2c(O)cc(O)cc2CC(=O)O1`, the IC50 was more than 20 µM.

Compound `C[C@H]1CC/C=C\CC(=O)c2c(O)cc(O)cc2CC(=O)O1` returned a concentration for half-maximal inhibition (IC50) of more than 20 µM.

Compound `CO[C@H]1CCC[C@H](C)OC(=O)Cc2cc(O)cc(O)c2C(=O)C1` [11ALPHA-METHOXYCURVULARIN] gave a half-maximal inhibitory concentration (IC50) of more than 20 µM.

The test system of another experiment is Salmonella typhi. The experiment can be described thus: Antibacterial activity against Salmonella typhi measured after 20 to 45 mins by broth microdilution method. The class given is functional, Salmonella enterica subsp. enterica serovar Typhi. As to conditions: Salmonella enterica; time 20-45 min.
Regarding `C[C@H]1CCC(=O)CCC(=O)c2c(O)cc(O)cc2CC(=O)O1`, the minimal inhibitory concentration (MIC) was more than 25 µg/mL.

Consider `C[C@H]1CC/C=C\CC(=O)c2c(O)cc(O)cc2CC(=O)O1`, for which the minimal inhibitory concentration (MIC) was more than 25 µg/mL.

`CO[C@H]1CCC[C@H](C)OC(=O)Cc2cc(O)cc(O)c2C(=O)C1` [11ALPHA-METHOXYCURVULARIN] came in with a minimum inhibitory concentration (MIC) of more than 25 µg/mL.

For another experiment, the system named is HeLa. The experiment can be described thus: Cytotoxicity against human HeLa cells by MTT assay.
Conditions: not given
Type of experiment: functional, cell-based.
`C[C@H]1CCC(=O)CCC(=O)c2c(O)cc(O)cc2CC(=O)O1`: the IC50 was more than 20 µM.

The compound `C[C@H]1CC/C=C\CC(=O)c2c(O)cc(O)cc2CC(=O)O1` came in with an IC50 of more than 20 µM.

In turn, `CO[C@H]1CCC[C@H](C)OC(=O)Cc2cc(O)cc(O)c2C(=O)C1` [11ALPHA-METHOXYCURVULARIN] came in with a half-inhibitory concentration (IC50) of more than 20 µM.

For another experiment, the system named is Shigella dysenteriae. The experiment can be described thus: Antibacterial activity against Shigella dysenteriae measured after 20 to 45 mins by broth microdilution method. Type of experiment: functional. As to conditions: time 20-45 min.
In turn, `C[C@H]1CCC(=O)CCC(=O)c2c(O)cc(O)cc2CC(=O)O1` had an MIC of more than 25 µg/mL.

Consider `C[C@H]1CC/C=C\CC(=O)c2c(O)cc(O)cc2CC(=O)O1`, for which the minimal inhibitory concentration (MIC) was more than 25 µg/mL.

Consider `CO[C@H]1CCC[C@H](C)OC(=O)Cc2cc(O)cc(O)c2C(=O)C1` [11ALPHA-METHOXYCURVULARIN], for which the MIC is more than 25 µg/mL.

The next experiment deals with Escherichia coli. Put plainly: Antibacterial activity against Escherichia coli measured after 20 to 45 mins by broth microdilution method. The class given is functional. As to conditions: time 20-45 min.
`C[C@H]1CCC(=O)CCC(=O)c2c(O)cc(O)cc2CC(=O)O1`: the minimum inhibitory concentration (MIC) is more than 25 µg/mL.

The compound `C[C@H]1CC/C=C\CC(=O)c2c(O)cc(O)cc2CC(=O)O1` registered a minimum inhibitory concentration (MIC) of more than 25 µg/mL.

`CO[C@H]1CCC[C@H](C)OC(=O)Cc2cc(O)cc(O)c2C(=O)C1` [11ALPHA-METHOXYCURVULARIN]: the MIC is more than 25 µg/mL.

A further experiment relates to SK-OV-3. The experiment can be described thus: Cytotoxicity against human SK-OV-3 cells by MTT assay. Type of experiment: functional, cell-based.
Conditions: not given
As to `C[C@H]1CCC(=O)CCC(=O)c2c(O)cc(O)cc2CC(=O)O1`, the concentration for half-maximal inhibition (IC50) was more than 20 µM.

For the compound `C[C@H]1CC/C=C\CC(=O)c2c(O)cc(O)cc2CC(=O)O1`, the concentration for half-maximal inhibition (IC50) was more than 20 µM.

`CO[C@H]1CCC[C@H](C)OC(=O)Cc2cc(O)cc(O)c2C(=O)C1` [11ALPHA-METHOXYCURVULARIN] yielded an IC50 of more than 20 µM.

The test system of a further experiment is Staphylococcus aureus. The experiment can be described thus: Antibacterial activity against Staphylococcus aureus measured after 20 to 45 mins by broth microdilution method. Type of experiment: functional. As to conditions: time 20-45 min.
Consider `C[C@H]1CCC(=O)CCC(=O)c2c(O)cc(O)cc2CC(=O)O1`, for which the minimum inhibitory concentration (MIC) was more than 25 µg/mL.

Compound `C[C@H]1CC/C=C\CC(=O)c2c(O)cc(O)cc2CC(=O)O1` showed an MIC of more than 25 µg/mL.

With `CO[C@H]1CCC[C@H](C)OC(=O)Cc2cc(O)cc(O)c2C(=O)C1` [11ALPHA-METHOXYCURVULARIN], the minimum inhibitory concentration (MIC) was more than 25 µg/mL.
